Assay results: ChEMBL document CHEMBL4665663, “Anti-atherosclerosis effect of HS donors based on nicotinic acid and chlorfibrate structures” (Bioorg Med Chem, 2019)
Active and inactive are the calls of the source. No cut-off for these calls is given here.

Columns and labels:
[1] = Prodrug release in phosphate buffer containing L-cysteine assessed as H2S release by measuring H2S releasing half-life at 60 uM by methylene blue method; assay type: ADME
[2] = system: H9c2; assay: Cytotoxicity against rat H9c2 cells assessed as reduction in cell viability after 48 hrs by MTT assay; assay type: cell-based; conditions: H9c2, 48 h
[3] = system: HUVEC; assay: Cytotoxicity against human HUVEC cells assessed as reduction in cell viability after 48 hrs by MTT assay; assay type: cell-based
[4] = system: RAW264.7; assay: Cytotoxicity against mouse RAW264.7 cells assessed as reduction in cell viability after 48 hrs by MTT assay; assay type: cell-based; conditions: RAW264.7, 48 h
[5] = system: WI-38; assay: Cytotoxicity against human WI38 cells assessed as reduction in cell viability after 48 hrs by MTT assay; assay type: cell-based; conditions: WI-38, 48 h
[6] = system: HUVEC; assay: Cytoprotective activity against ox-LDL induced cell damage in human HUVEC cells assessed as increase in cell viability at 50 to 100 uM preincubated for 10 mins followed by ox-LDL stimulation measured after 24 hrs by MTT assay; assay type: functional, cell-based; conditions: dose microM 50-100, time 10.0 min
[7] = system: HUVEC; assay: Cytotoxicity against human HUVEC cells assessed as reduction in cell viability at 10 to 100 uM by MTT assay; assay type: cell-based; conditions: dose 10-100 µM
[8] = system: RAW264.7; assay: Anti-atherosclerotic activity in mouse RAW264.7 cells assessed as decrease in ox-LDL induced intracellular lipid accumulation by measuring reduction in total cholesterol level at 10 to 50 uM preincubated for 10 mins followed by ox-LDL stimulation and measured after 24 hrs by colorimetric method; assay type: functional, cell-based; conditions: dose microM 10-50, time 10.0 min
[9] = system: RAW264.7; assay: Anti-atherosclerotic activity in mouse RAW264.7 cells assessed as decrease in ox-LDL induced intracellular lipid accumulation by measuring reduction in free cholesterol level at 10 to 50 uM preincubated for 10 mins followed by ox-LDL stimulation and measured after 24 hrs by colorimetric method; assay type: functional, cell-based; conditions: dose microM 10-50, time 10.0 min
[10] = system: RAW264.7; assay: Antioxidant activity in mouse RAW264.7 cells assessed as reduction in ox-LDL induced ROS accumulation at 10 uM preincubated for 10 mins followed by ox-LDL stimulation and measured after 24 hrs by DCFH-DA staining based fluorescence microscopic analysis; assay type: functional, cell-based
[11] = system: RAW264.7; assay: Antioxidant activity in mouse RAW264.7 cells assessed as reduction in ox-LDL induced oxidative stress by measuring decrease in MDA level at 10 to 50 uM preincubated for 10 mins followed by ox-LDL stimulation and measured after 24 hrs; assay type: functional, cell-based; conditions: dose microM 10-50, time 10.0 min
[12] = system: RAW264.7; assay: Antioxidant activity in mouse RAW264.7 cells assessed as reduction in ox-LDL induced oxidative stress by measuring increase in SOD level at 10 to 50 uM preincubated for 10 mins followed by ox-LDL stimulation and measured after 24 hrs; assay type: functional, cell-based; conditions: dose microM 10-50, time 10.0 min
[13] = system: RAW264.7; assay: Anti-inflammatory activity in mouse RAW264.7 cells assessed as decrease in ox-LDL induced inflammatory reaction by measuring decrease in TNF-alpha production at 10 to 50 uM preincubated for 10 mins followed by ox-LDL stimulation and measured after 24 hrs; assay type: functional, cell-based; conditions: dose microM 10-50, time 10.0 min
[14] = system: RAW264.7; assay: Anti-inflammatory activity in mouse RAW264.7 cells assessed as decrease in ox-LDL induced inflammatory reaction by measuring increase in IL-10 production at 10 to 50 uM preincubated for 10 mins followed by ox-LDL stimulation and measured after 24 hrs; assay type: functional, cell-based; conditions: dose microM 10-50, time 10.0 min
[15] = system: RAW264.7; assay: Inhibition of macrophage foam cell formation in mouse RAW264.7 cells assessed as reduction in ox-LDL induced red lipid droplets formation at 10 uM preincubated for 10 mins followed by ox-LDL stimulation and measured after 24 hrs by oil red O staining based inverted microscopy analysis; assay type: functional

| SMILES | t1/2 [1] [min] | IC50 [2] [µM] | IC50 [3] [µM] | IC50 [4] [µM] | IC50 [5] [µM] | Activity [6] | Activity [7] | Activity [8] | Activity [9] | Activity [10] | Activity [11] | Activity [12] | Activity [13] | Activity [14] | inhibition [15] |
| --- | --- | --- | --- | --- | --- | --- | --- | --- | --- | --- | --- | --- | --- | --- | --- |
| Cc1ccc(NC(=S)OCCNC(=O)c2cccnc2)cc1 | 0.9 | 726 | 567 | > 800 | > 800 | – | – | – | – | – | – | – | – | – | – |
| COc1ccc(NC(=S)OCCNC(=O)C(C)(C)Oc2ccc(Cl)cc2)cc1 | 0.9 | 747 | 616 | > 800 | 780 | – | – | – | – | – | – | – | – | – | – |
| Cc1cnc(C(=O)OCCCOC(=O)CCCCC2CCSS2)c[n+]1[O-] (stereo not given) | 19.8 | > 800 | > 800 | > 800 | > 800 | – | – | – | – | – | – | – | – | – | – |
| CC(C)(Oc1ccc(Cl)cc1)C(=O)NCCOC(=S)Nc1ccc([N+](=O)[O-])cc1Cl | 1.7 | > 800 | 729 | > 800 | > 800 | Active | Non-Toxic | – | – | – | – | – | – | – | – |
| CC(C)(Oc1ccc(Cl)cc1)C(=O)NCCOC(=S)Nc1ccc(F)cc1 | 1.2 | > 800 | 773 | > 800 | > 800 | – | – | – | – | – | – | – | – | – | – |
| O=C(O)c1cccnc1 | – | – | – | – | – | – | – | Active | Active | inactive | inactive | inactive | Active | Active | Active |

The next lines start with results.

| t1/2 [1] [min] | SMILES | IC50 [2] [µM] | IC50 [3] [µM] | IC50 [4] [µM] | IC50 [5] [µM] | Activity [6] | Activity [7] | Activity [8] | Activity [9] | Activity [10] | Activity [11] | Activity [12] | Activity [13] | Activity [14] | inhibition [15] |
| --- | --- | --- | --- | --- | --- | --- | --- | --- | --- | --- | --- | --- | --- | --- | --- |
| 5.6 | CC(C)(Oc1ccc(Cl)cc1)C(=O)Oc1ccc(C(N)=S)cc1 | 797 | 755 | > 800 | > 800 | – | – | – | – | – | – | – | – | – | – |
| 3.9 | Cc1cnc(C(=O)Oc2ccc(C(N)=S)cc2)c[n+]1[O-] | 780 | 714 | > 800 | > 800 | – | – | – | – | – | – | – | – | – | – |
| 0.8 | COc1ccc(NC(=S)OCCNC(=O)c2cccnc2)cc1 | 694 | 550 | > 800 | 781 | – | – | – | – | – | – | – | – | – | – |
